# Earlier results, collected in patent US20230398128A1, “PREFERRED ORAL TESTOSTERONE UNDECANOATE THERAPY TO ACHIEVE TESTOSTERONE REPLACEMENT TREATMENT” (Marius Pharmaceuticals LLC, priority 2021, published 2023).
# Conditions: for increase in ambulatory SBP: previous testosterone studies
Structure (SMILES),increase in ambulatory SBP,"increase in ambulatory systolic BP (previously reported study, subjects receiving antihypertensive medication)"
CCCCCCC(=O)O[C@H]1CC[C@H]2[C@@H]3CCC4=CC(=O)CC[C@]4(C)[C@H]3CC[C@]12C [testosterone enanthate],3.7 mmHg,
"CCCCCCCCCCC(=O)O[C@H]1CC[C@H]2[C@@H]3CCC4=CC(=O)CC[C@]4(C)[C@H]3CC[C@]12C [testosterone undecanoate (oral), testosterone undecanoate]",4.9 mmHg,5.5 mmHg
